Experimental data as given in patent publication US4238508A, “Method for analgesia using 3-hydroxyacetanilide” (The Research Foundation of State University of New York, priority 1979, dated 1980).

Tests used:
in vivo = experiment: in vivo; parameters: species or system white mice; details: mouse; for survival at 96 h: ip
Method: ^(a) Mortality determined at 96 hours, all drugs given
intraperitoneally dissolved in saline at 42° C.
receiving same mg dose or saline controls and all acetaminophen groups p
<0.005 using chi square test.

liver [1] = experiment: Gross appearance of livers of mice that died after injection; details: white mice
Method: Doses of 400, 600 and 900 milligrams per kilogram of 3-hydroxyacetanilide, of acetaminophen and of normal saline control were administered to white mice.

liver glutathione = experiment: Effect on liver glutathione levels in mice; assay type: in vivo, mouse; details: 600 mg/kg i.p.; for Depletion of mouse liver glutathione: two hours; for Liver glutathione level: two hours after injection, saline 8.2 ± 0.9
Method: A number of mice were given doses of acetaminophen and 3-hydroxyacetanilideat levels of 600 mg/kg of body weight and a number of mice were given normal saline as a control. […] All values were determined at two hours after intraperitoneal drug injection.

[2] = test system: plasma glutamate-pyruvate transaminase (GPT); experiment: Plasma glutamate-pyruvate transaminase (GPT) activity in mice; assay type: in vivo; details: for Effect on transaminase activity: 600 mg/kg acetaminophen, 900 mg/kg 3-hydroxyacetanilide; for Transaminase activity in plasma, Mean ± SD: saline 32 ± 18
Method: (§1) The relative effects of 3-hydroxyacetanilide and acetaminophen were compared on plasma glutamate-pyruvate transaminase (GPT) activity. 600 mg/kg of acetaminophen were used in the test; whereas, a larger quantity, 900 mg/kg, of 3-hydroxyacetanilide was used. […] Activity was measured spectrophotometrically at room temperature using a Sigma® Enzyme Kit. The activity is expressed in micromoles per minute per […] of plasma. The blood for the test was collected in a small amount of heparin. Assays were performed within two hours after obtaining the blood. […] There appears to be a correlation between drug dose, amounts of necrosis seen histologically and elevation of transaminase levels.

[3] = Mouse writhing test with 1% acetic acid; assay type: in vivo; details: for Writhes per 5 Minute (SD): 30 minutes prior to test, control 23.2 ± 5.3
Method: To test the effectiveness of 3-hydroxyacetanilide as an analgesic when compared to acetaminophen, a mouse writhing test was used wherein 1% acetic acid is given intraperitoneally 5 minutes prior to counting abdominal writhes made by the animal. The dose of the 1% […] is 0.01 cc/gm of body weight. Prior to counting the writhes, acetaminophen and 3-hydroxyacetanilide were given subcutaneously 30 minutes prior to the test. The control was given normal saline. […] This example therefore illustrates that 3-hydroxyacetanilide is unexpectedly as good an analgesic in this test as acetaminophen and should therefore be used in dosages similar to the dosages known to be effective for actaminophen and since it has almost the same analgesic effect in mice as acetaminophen, it would be expected to have the same analgesic effect as acetaminophen in other mammals.

[4] = test system: plasma glutamate-pyruvate transaminase (GPT); details: mice, acetaminophen-induced hepatic injury; cited from earlier work
liver [5] = details: acetaminophen-induced hepatic injury, mice; cited from earlier work
liver [6] = experiment: Hepatic necrosis; assay type: in vivo, mice; details: compared with acetaminophen
Method: as §1

[7] = British Pat. No. 1,006,558; cited from earlier work
[8] = Roberts and Jollow; cited from earlier work

SMILES: CC(=O)Nc1ccc(O)cc1 [Acetaminophen, 4-hydroxyacetanilide, reference compound]
- survival at 96 h (in vivo; 400 mg/kg): 40%
- survival at 96 h (in vivo; 600 mg/kg): 20%
- survival at 96 h (in vivo; 900 mg/kg): 20%
- Gross appearance of liver in mice which died (liver [1]): large and grossly congested in appearance
- Depletion of mouse liver glutathione (liver glutathione): rapid depletion
- Liver glutathione level (liver glutathione): 2.4 ± 0.6 mg/gram liver
- Effect on transaminase activity [2]: drastically affects the transaminase activity
- Transaminase activity in plasma, Mean ± SD ([2]; 600 mg/kg, n 9): 1834 ± 771 IU/ml Plasma
- Writhes per 5 Minute (SD) ([3]; 200 mg/kg s.c.): 10.0 ± 6.2
- Writhes per 5 Minute (SD) ([3]; 400 mg/kg s.c.): 3.5 ± 4.0
- Reduction of the number of writhes per 5 minutes ([3]; s.c., 200 and 400 mg/kg): effectively reduced the number of writhes per 5 minutes
- Time of maximum plasma transaminase levels after dose [4]: approximately 6 hours
- Hepatic injury, histology (liver [5]): centrilobular necrosis

SMILES: CC(=O)Nc1cccc(O)c1 [3-hydroxyacetanilide]
- Mortality compared with a comparable dose of acetaminophen (in vivo): considerably less mortality
- survival at 96 h (in vivo; 400 mg/kg): 96%
- survival at 96 h (in vivo; 600 mg/kg): 96%
- survival at 96 h (in vivo; 900 mg/kg): 91%
- Gross appearance of liver in mice which died (liver [1]): no significant gross abnormality of the liver
- Depletion of mouse liver glutathione (liver glutathione): much less depletion
- Liver glutathione level (liver glutathione): 6.2 ± 1.2 mg/gram liver
- Effect on transaminase activity [2]: much less effect
- Transaminase activity in plasma, Mean ± SD ([2]; 900 mg/kg, n 17): 23 ± 5 IU/ml Plasma
- Elevation in plasma GPT activity ([2]; 900 mg/kg, up to 48 hours after treatment): No significant elevation
- Hepatic necrosis (liver [6]): did not cause a similar level of hepatic necrosis
- Writhes per 5 Minute (SD) ([3]; 200 mg/kg s.c.): 11.6 ± 8.1
- Writhes per 5 Minute (SD) ([3]; 400 mg/kg s.c.): 1.3 ± 1.4
- Analgesic effect compared with acetaminophen ([3]; s.c., 200 and 400 mg/kg): statistically insignificant differences
- Reduction of the number of writhes per 5 minutes ([3]; s.c., 200 and 400 mg/kg): effectively reduced the number of writhes per 5 minutes
- Anti-pyretic activity [7]: has anti-pyretic activity
- Hepatotoxicity relative to acetaminophen [8]: substantially less hepatotoxic than acetaminophen
